Experimental data as given in publication PMC11743413 (Bioresources and Bioprocessing, 2025).

Molecular target: T1, SerE (Corynebacterium glutamicum, UniProt Q8NSR3)
T1 construct: gene Cgl0605
Conditions: L-proline released from Pro-Gly in the cells; acid-ninhydrin assay

T1 sequence (Q8NSR3 1-307): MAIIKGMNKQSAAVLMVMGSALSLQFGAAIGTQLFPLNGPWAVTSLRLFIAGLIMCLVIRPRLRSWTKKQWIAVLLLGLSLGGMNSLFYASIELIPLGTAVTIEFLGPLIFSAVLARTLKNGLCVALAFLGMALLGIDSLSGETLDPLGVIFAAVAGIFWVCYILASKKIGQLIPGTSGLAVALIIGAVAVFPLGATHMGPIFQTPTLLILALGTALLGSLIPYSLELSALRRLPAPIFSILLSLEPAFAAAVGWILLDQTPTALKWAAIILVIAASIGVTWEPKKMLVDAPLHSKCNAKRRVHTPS

amino acid export assay after Pro-Gly dipeptide addition; serE deletion versus o: SerE is indeed as an L-proline exporter
Structure (SMILES): O=C(O)[C@@H]1CCCN1 [L-proline]
